# In patent US11524944B2, “2-phenylpyrimidine-4-carboxamides as AHR inhibitors” (Bayer Aktiengesellschaft, priority 2017, dated 2022):
# Values joined by “and” are separate entries in the source; they are usually repeats but may differ in a detail not shown here. Equal entries are not always repeated.
# Columns and labels:
# Human AhR = target: T1, Human AhR (Homo sapiens, UniProt P35869); assay: Transactivation assay in human cell line (in vitro assay 1): antagonism; assay type: cell-based; conditions: U87 glioblastoma cells, AHR inducible firefly luciferase reporter (DRE), 150 μM kynurenic acid, 20 hours
# T1 construct: host or cells: U87 glioblastoma cells, stably transfected with a DRE firefly luciferase reporter and a constitutive renilla reporter
# T1 sequence (P35869 11-848): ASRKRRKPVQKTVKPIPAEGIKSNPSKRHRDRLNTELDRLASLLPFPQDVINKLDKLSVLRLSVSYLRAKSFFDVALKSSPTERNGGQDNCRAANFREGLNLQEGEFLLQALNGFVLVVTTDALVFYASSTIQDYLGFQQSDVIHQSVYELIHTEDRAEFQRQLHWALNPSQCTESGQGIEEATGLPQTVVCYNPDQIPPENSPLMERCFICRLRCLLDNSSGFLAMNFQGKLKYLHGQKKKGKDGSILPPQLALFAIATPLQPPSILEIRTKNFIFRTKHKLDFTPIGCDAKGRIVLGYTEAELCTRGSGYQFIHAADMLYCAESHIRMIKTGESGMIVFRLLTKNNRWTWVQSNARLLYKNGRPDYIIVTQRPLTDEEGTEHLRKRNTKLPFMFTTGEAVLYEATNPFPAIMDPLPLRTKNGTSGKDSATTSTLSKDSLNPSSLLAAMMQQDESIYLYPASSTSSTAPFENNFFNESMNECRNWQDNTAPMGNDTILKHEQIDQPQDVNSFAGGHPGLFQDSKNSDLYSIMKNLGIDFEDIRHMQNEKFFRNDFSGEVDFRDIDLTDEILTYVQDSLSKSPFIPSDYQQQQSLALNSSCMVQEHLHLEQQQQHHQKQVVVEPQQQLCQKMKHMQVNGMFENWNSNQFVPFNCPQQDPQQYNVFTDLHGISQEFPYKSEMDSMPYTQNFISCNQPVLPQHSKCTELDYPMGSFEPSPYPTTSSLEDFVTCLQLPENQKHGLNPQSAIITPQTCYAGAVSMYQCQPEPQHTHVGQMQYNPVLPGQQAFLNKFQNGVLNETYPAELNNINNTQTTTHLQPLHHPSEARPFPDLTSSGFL
# Procedure: (§1) Examples were tested in selected biological assays one or more times. When tested more than once, data are reported as either average values or as median values, wherein • the average value, also referred to as the arithmetic mean value, represents the sum of the values obtained divided by the number of times tested, and • the median value represents the middle number of the group of values when ranked in ascending or descending order. If the number of values in the data set is odd, the median is the middle value. If the number of values in the data set is even, the median is the arithmetic mean of the two middle values.
# Transactivation Assay in Human Cell Line (In Vitro Assay 1)
# (§2) Transactivation assay was carried out in U87 glioblastoma cells (ATCC) endogenously expressing AHR. In addition the cells were stably transfected with an AHR inducible firefly luciferase reporter gene construct that carried AHR-binding sites (DRE) in its promoter and a renilla reporter gene construct with constitutively active promoter. Kynurenic acid is an endogenous AHR activating ligand and was used to prestimulate test cells prior to testing the antagonistic properties of compounds.
# In Vitro Assay 1: Antagonism in Human Cell Line
# Firefly luciferase and Renilla activity was determined by the DualGlo Luciferase Assay System (Promega, #2920). Renilla activity was used to assess toxic effects of compounds.
# Mouse AhR = target: T2, Mouse AhR (Mus musculus, UniProt P30561); assay: Transactivation assay in mouse cell line (in vitro assay 2): antagonism; assay type: cell-based; conditions: Hepa 1c1c7 cells, AHR inducible firefly luciferase reporter (DRE), 200 μM kynurenic acid, 20 hours
# T2 sequence (P30561 1-848 P471L/N533S/M589L): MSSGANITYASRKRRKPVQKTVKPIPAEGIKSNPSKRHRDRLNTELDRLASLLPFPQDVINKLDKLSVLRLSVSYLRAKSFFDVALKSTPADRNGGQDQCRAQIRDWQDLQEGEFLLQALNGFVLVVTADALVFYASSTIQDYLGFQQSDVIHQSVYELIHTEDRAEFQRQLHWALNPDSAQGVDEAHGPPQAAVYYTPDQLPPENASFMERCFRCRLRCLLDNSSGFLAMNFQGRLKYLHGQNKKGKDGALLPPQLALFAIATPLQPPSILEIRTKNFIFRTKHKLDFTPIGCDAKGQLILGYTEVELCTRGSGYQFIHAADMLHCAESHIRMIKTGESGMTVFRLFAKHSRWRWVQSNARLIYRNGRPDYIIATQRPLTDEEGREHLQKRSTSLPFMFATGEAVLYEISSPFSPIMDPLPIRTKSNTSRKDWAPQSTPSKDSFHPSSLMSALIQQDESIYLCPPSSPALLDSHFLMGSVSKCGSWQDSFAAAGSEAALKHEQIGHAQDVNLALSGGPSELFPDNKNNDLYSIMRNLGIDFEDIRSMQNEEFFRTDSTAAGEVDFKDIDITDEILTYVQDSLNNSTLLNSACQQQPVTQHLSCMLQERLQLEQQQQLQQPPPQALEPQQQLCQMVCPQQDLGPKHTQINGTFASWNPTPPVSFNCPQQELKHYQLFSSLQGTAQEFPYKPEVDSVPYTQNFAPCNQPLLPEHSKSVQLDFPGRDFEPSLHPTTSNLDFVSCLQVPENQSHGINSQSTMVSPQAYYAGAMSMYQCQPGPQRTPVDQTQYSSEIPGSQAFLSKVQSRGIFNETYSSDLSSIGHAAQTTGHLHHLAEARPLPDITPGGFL
# Procedure: as §1
# Transactivation Assay in Mouse Cell Line (In Vitro Assay 2)
# as §2, with “Hepa 1c1c7” for “U87 glioblastoma”, “(ATCC #CRL-2026)” for “(ATCC)”, “its” for “its promoter and a renilla reporter gene construct with constitutively active”
# In Vitro Assay 2: Antagonism in Mouse Cell Line
# Firefly luciferase activity was determined by the SteadyGlo Luciferase Assay System (Promega, #E2550).
compound,measurement,setting,value
"Cc1cccc(-c2nc(C(=O)N[C@@H](C)CO)cc(-c3ccc(OC(F)(F)F)cc3)n2)c1 [Example 31, N-[(2S)-1-hydroxypropan-2-yl]-2-(3-methylphenyl)-6-[4-(trifluoromethoxy)phenyl]pyrimidine-4-carboxamide]",IC50,Human AhR,26.4 nM
same,IC50,Mouse AhR,46.9 nM
"Cc1cc(-c2nc(C(=O)N[C@@H](C)CO)cc(-c3ccc(Cl)cc3)n2)ccc1F [Example 65, 6-(4-chlorophenyl)-2-(4-fluoro-3-methylphenyl)-N-[(2S)-1-hydroxypropan-2-yl]pyrimidine-4-carboxamide]",IC50,Human AhR,48.5 nM
same,IC50,Mouse AhR,134 nM
"CC(C)(O)CNC(=O)c1cc(-c2ccc(C(F)(F)F)cc2)nc(-c2cccc(F)c2)n1 [Example 8, 2-(3-Fluorophenyl)-N-(2-hydroxy-2-methylpropyl)-6-[4-(trifluoromethyl)phenyl]pyrimidine-4-carboxamide]",IC50,Human AhR,> 20000 nM
same,IC50,Mouse AhR,> 20000 nM
"C[C@@H](CO)NC(=O)c1cc(-c2ccc(Cl)cc2)nc(-c2ccc(F)c(Cl)c2)n1 [Example 66, 2-(3-chloro-4-fluorophenyl)-6-(4-chlorophenyl)-N-[(2S)-1-hydroxypropan-2-yl]pyrimidine-4-carboxamide]",IC50,Human AhR,23.5 nM
same,IC50,Mouse AhR,148 nM
"CC(C)(O)CNC(=O)c1cc(-c2ccc(OC(F)(F)F)cc2)nc(-c2ccc(Cl)cc2)n1 [Example 14, 2-(4-chlorophenyl)-N-(2-hydroxy-2-methylpropyl)-6-[4-(trifluoromethoxy)phenyl]pyrimidine-4-carboxamide]",IC50,Human AhR,234 nM
same,IC50,Mouse AhR,148 nM
"C[C@@H](CO)NC(=O)c1cc(-c2ccc(OC(F)(F)F)cc2)nc(-c2ccc(F)c(Cl)c2)n1 [Example 33, 2-(3-chloro-4-fluorophenyl)-N-[(2S)-1-hydroxypropan-2-yl]-6-[4-(trifluoromethoxy)phenyl]pyrimidine-4-carboxamide]",IC50,Human AhR,98.4 nM
same,IC50,Mouse AhR,397 nM
"C[C@@H](CO)NC(=O)c1cc(-c2ccc(OC(F)(F)F)cc2)nc(-c2ccc(Cl)cc2)n1 [Example 29, 2-(4-chlorophenyl)-N-[(2S)-1-hydroxypropan-2-yl]-6-[4-(trifluoromethoxy)phenyl]pyrimidine-4-carboxamide]",IC50,Human AhR,525 nM
same,IC50,Mouse AhR,697 nM
"C[C@@H](CO)NC(=O)c1cc(-c2ccc(Cl)cc2)nc(-c2ccc(Cl)cc2)n1 [Example 3, 2,6-Bis(4-chlorophenyl)-N-[(2S)-1-hydroxypropan-2-yl]pyrimidine-4-carboxamide]",IC50,Human AhR,640 nM
same,IC50,Mouse AhR,532 nM
"CC(C)(O)CNC(=O)c1cc(-c2ccc(Cl)cc2)nc(-c2ccc(F)cc2)n1 [Example 45, 6-(4-chlorophenyl)-2-(4-fluorophenyl)-N-(2-hydroxy-2-methylpropyl)pyrimidine-4-carboxamide]",IC50,Human AhR,24.4 nM
same,IC50,Mouse AhR,161 nM
"C[C@H](CO)NC(=O)c1cc(-c2ccc(OC(F)(F)F)cc2)nc(-c2cccc(F)c2)n1 [Example 6, 2-(3-Fluorophenyl)-N-[(2R)-1-hydroxypropan-2-yl]-6-[4-(trifluoromethoxy)phenyl]pyrimidine-4-carboxamide]",IC50,Human AhR,12.2 nM
same,IC50,Mouse AhR,17.8 nM
"C[C@@H](CO)NC(=O)c1cc(-c2ccc(OC(F)(F)F)cc2)nc(-c2ccc(C(F)F)cc2)n1 [Example 42, 2-[4-(difluoromethyl)phenyl]-N-[(2S)-1-hydroxypropan-2-yl]-6-[4-(trifluoromethoxy)phenyl]pyrimidine-4-carboxamide]",IC50,Human AhR,1100 nM
same,IC50,Mouse AhR,1100 nM
"C[C@@H](CO)NC(=O)c1cc(-c2ccc(OC(F)(F)F)cc2)nc(-c2ccc(OC(F)(F)F)cc2)n1 [Example 12, N-[(2S)-1-hydroxypropan-2-yl]-2,6-bis[4-(trifluoromethoxy)phenyl]pyrimidine-4-carboxamide]",IC50,Human AhR,> 20000 nM
same,IC50,Mouse AhR,> 20000 nM and 17900 nM
"COc1ccc(-c2nc(C(=O)NCC(C)(C)O)cc(-c3ccc(OC(F)(F)F)cc3)n2)cc1 [Example 15, N-(2-hydroxy-2-methylpropyl)-2-(4-methoxyphenyl)-6-[4-(trifluoromethoxy)phenyl]pyrimidine-4-carboxamide]",IC50,Human AhR,390 nM
same,IC50,Mouse AhR,> 20000 nM
"COc1cc(F)cc(-c2nc(C(=O)N[C@@H](C)CO)cc(-c3ccc(Cl)cc3)n2)c1 [Example 76, 6-(4-chlorophenyl)-2-(3-fluoro-5-methoxyphenyl)-N-[(2S)-1-hydroxypropan-2-yl]pyrimidine-4-carboxamide]",IC50,Human AhR,36.8 nM
same,IC50,Mouse AhR,81.5 nM
"Cc1cc(F)cc(-c2nc(C(=O)N[C@@H](C)CO)cc(-c3ccc(OC(F)(F)F)cc3)n2)c1 [Example 41, 2-(3-fluoro-5-methylphenyl)-N-[(2S)-1-hydroxypropan-2-yl]-6-[4-(trifluoromethoxy)phenyl]pyrimidine-4-carboxamide]",IC50,Human AhR,29.5 nM
same,IC50,Mouse AhR,191 nM
"Cc1cccc(-c2nc(C(=O)N[C@@H](C)CO)cc(-c3ccc(Cl)cc3)n2)c1 [Example 64, 6-(4-chlorophenyl)-N-[(2S)-1-hydroxypropan-2-yl]-2-(3-methylphenyl)pyrimidine-4-carboxamide]",IC50,Human AhR,7.2 nM
same,IC50,Mouse AhR,52.6 nM
"C[C@@H](CO)NC(=O)c1cc(-c2ccc(Cl)cc2)nc(-c2cccc(F)c2)n1 [Example 4, 6-(4-Chlorophenyl)-2-(3-fluorophenyl)-N-[(2S)-1-hydroxypropan-2-yl]pyrimidine-4-carboxamide]",IC50,Human AhR,1.69 nM
same,IC50,Mouse AhR,3.38 nM
"C[C@@H](CO)NC(=O)c1cc(-c2ccc(OC(F)(F)F)cc2)nc(-c2cccc(C#N)c2)n1 [Example 36, 2-(3-cyanophenyl)-N-[(2S)-1-hydroxypropan-2-yl]-6-[4-(trifluoromethoxy)phenyl]pyrimidine-4-carboxamide]",IC50,Human AhR,18.4 nM
same,IC50,Mouse AhR,180 nM
"CC(C)(O)CNC(=O)c1cc(-c2ccc(OC(F)(F)F)cc2)nc(-c2cccc(C#N)c2)n1 [Example 20, 2-(3-cyanophenyl)-N-(2-hydroxy-2-methylpropyl)-6-[4-(trifluoromethoxy)phenyl]pyrimidine-4-carboxamide]",IC50,Human AhR,11.4 nM
same,IC50,Mouse AhR,125 nM
"C[C@@H](CO)NC(=O)c1cc(-c2ccc(OC(F)(F)F)cc2)nc(-c2cccc(F)c2)n1 [Example 5, 2-(3-Fluorophenyl)-N-[(2S)-1-hydroxypropan-2-yl]-6-[4-(trifluoromethoxy)phenyl]pyrimidine-4-carboxamide]",IC50,Human AhR,1.27 nM
same,IC50,Mouse AhR,1.28 nM
